Values after ≈ are worked out from the molar mass of the structure shown.
What was measured:
Format in all cases: cell-based, canine
D17 cells = experiment: Annexin V-FITC apoptosis assay, D17; conditions: 15 μg/mL CBD, 4 hours, VC 6.5±0.6%
Method: Apoptosis after 4 and 8 hours treatment is measured using Annexin-V staining (Invitrogen Annexin V-FITC staining kit, Carlsbad, California). Briefly, cells are detached with Accumax (Innovative Cell Technologies, San Diego, California), collected and centrifuged for 10 m at 1000 g at 4° C. The pellet is washed once with PBS before resuspension in Annexin Binding Buffer (ABB; 10 mM HEPES, 140 mM NaCl, 2.5 mM CaCl2, pH 7.4) at a density of approximately 1×10^6 cell/mL. […] After the incubation, ABB is added to the cell suspension and kept on ice until fluorescence is measured with the BD FACScalibur flow cytometer using an argon laser (BD Biosciences, Ashland, Oregon). Ten thousand events are collected per sample. Analysis is performed with the FlowJo software (Version 10.7.1. Becton, Dickinson, Ashland, Oregon) by first gating based on the forward- and side-scatter characteristics for each cell line followed by Annexin V-FITC positive cells. Negative fluorescence controls are unstained cells. Three independent replicates are examined for each treatment.

[1] = test system: 17-71, CMT12 and D17 cell lines; experiment: Time course Western blot of signalling pathways, autophagy and caspase 3
Method: Cells are plated on 100 mm tissue culture-treated plates and incubated overnight in complete medium until 60% confluency is reached. […] Cells are harvested and lysed at each time point for control and CBD treated cells using mammalian lysis buffer (25 mM Tris, 100 mM NaCl, 1 mM EDTA, 1% Triton X-100, pH 7.4), and then centrifuged for 5 minutes at 12 000 g at 4° C. The supernatant is collected and the protein concentration is determined using the Bradford assay (Coomassie-dye; ThermoFisher Scientific Pierce, Waltham, Massachusetts). […] Membranes are incubated overnight in primary antibody solutions at a dilution of 1:1000 in TBST on a rocking platform at 4° C. Primary antibodies confirmed as cross reactive with canine cells or tissues include mouse extracellular regulated kinase (ERK) (R&D Biosciences, Boston, Massachusetts); rabbit anti-protein kinase B (AKT), Ser473 phosphorylated-AKT, stress-activated protein kinase/jun-amino-terminal kinase (SAPK/JNK), Thr183/Tyr185 phosphorylated-SAPK/JNK, mammalian target of rapamycin (mTOR), Ser2448 phosphorylated-mTOR, anti-Thr202/Tyr204 phosphorylated p44/42 MAPK (ERK1/2), anti-p38, anti-phosphorylated p38, anti-p62 and anti-LC3 A/B (Cell Signalling Technology, Danvers, Massachusetts)(e.g., Syrjä P, Anwar T, Jokinen T, Kyöstilä K, Jäderlund K H, Cozzi F, Rohdin C, Hahn K, Wohlsein P, Baumgärtner W, Henke D, Oevermann A, Sukura A, Leeb T, Lohi H, and Eskelinen E L, Basal Autophagy Is Altered in Lagotto Romagnolo Dogs with an ATG4D Mutation, Vet Pathol, 2017 November, 54(6), pp. 953-963, doi: 10.1177/0300985817712793; Gordon I K, Ye F, and Kent M, Evaluation of the mammalian target of rapamycin pathway and the effect of rapamycin on target expression and cellular proliferation in osteosarcoma cells from dogs, Amer J Vet Res, 2008, 69, pp. 1079-1084; Ikari A, Atomi K, Kinjo Y, and Sugatani J, Magnesium deprivation inhibits a MEK-ERK cascade and cell proliferation in epithelial Madin-Darby canine kidney cells, Life Sci, 2010, 86, pp. 766-773; and Levine C B, Bayle J, Biourge V, and Wakshlag J J, Effects and synergy of feed ingredients on canine neoplastic cell proliferation, BMC Vet Res, 2016, 12(1), 159, which are incorporated herein by reference in their entirety). Membranes are washed three times with TBST and incubated at room temperature for 1 hour in the corresponding secondary anti-rabbit IgG or anti-mouse IgG horseradish peroxidase-conjugated antibody at a dilution of 1:2000 (Cell Signalling Technology, Danvers, MA). Membranes are washed three times with TBST and visualized with a chemi-luminescent reagent (Clarity Western ECL Substrate; Bio-Rad, Hercules, California). Digital images are captured using an imaging system (Biospectrum 410; UVP, Upland, California or FluorChem E; Cell Biosciences, San Jose, California). Each blot is performed twice from two different experiments to confirm findings.

[2] = test system: CMT12 mammary gland carcinoma cell line; experiment: 48 hours MTT proliferation assay, CMT12; conditions: pure compound
Method: 3-(4,5-Dimethylthaizol-2-yl)-2,5-diphenyltetrazolium bromide (MTT) assays are performed on all previously described cell lines; CMT12, HMPOS, D17, Abrams and 17-71. […] Cells are treated with vehicle (methanol or ethanol/DMSO mix) or various concentrations of the CBD, CBDA or CBD-rich hemp extract ranging from 0.42 to 20 μg/mL in serial dilution for 48 hours. MTT assays are performed after 48 hours of treatment by adding 20 μL of MTT dye ([…] filtered 5 mg/mL in phosphate-buffered saline [PBS]) to each well and incubating at 37° C. in 5% CO2 for 2 hours. The media is then aspirated, washed once with 200 μL of PBS and then solubilized in 200 μL of ethanol. Immediate analysis of the optical density of each well is performed using a spectrophotometric plate reader (Epoch; Biotek, Winooski, Vermont) at a wavelength of 570 nm as previously described (e.g., Vega-Avila E and Pugsley M K, An overview of colorimetric assay methods used to assess survival or proliferation of mammalian cells, Proc West Pharmacol Soc., 2011, 54, pp. 10-14 which is incorporated herein by reference in its entirety). The percent proliferating cells of control for each concentration is averaged and reported as a mean+/—SD from triplicate wells over three experiments.
For CBD, CBDA and hemp extract concentrations needed to obtain a 50% inhibition of cell proliferation (IC50) are then calculated across experiments by Probit analysis using XLFit5 software (IDBS, Guildford, United Kingdom) for reporting the results for each cell line.

With `C=C(C)[C@@H]1CCC(C)=C[C@H]1c1c(O)cc(CCCCC)cc1O` [CBD, cannabidiol] the “Annexin V positive staining cells” value (D17 cells) was 9.4±1.8%, the “caspase 3 activation” value ([1]; 10 μg/mL CBD, 2, 4, 8 hours) was “activation of caspase 3 which can also be seen at 2 hours in the 17-71 cells, but is not evident until hour 8 in the CMT12 and D17 CBD treated cells” and the “AKT, phosphorylated-AKT, mTOR and phosphorylated-mTOR immunoblots” value ([1]; 10 μg/mL CBD, 2, 4 and 8 hours) was “no depression or increased intensity of the signal over time”. For the same compound, the “LC3II proportion of LC3 protein” value ([1]; 10 μg/mL CBD, 2 to 8 hours, all three cell lines) was “increase in the LC3II proportion of LC3 protein”, the “ERK and JNK phosphorylation” value ([1]; 10 μg/mL CBD, 8 hour time-course vs methanol vehicle) was “repeatable increases in both ERK and JNK phosphorylation across all three cell lines” and the “autophagy cargo carrier protein p62 (western blotting)” value ([1]; 10 μg/mL CBD, over 8 hours) was “marked decrease”. The “p38 phosphorylation and activation” value ([1]; CBD treatment) was “minimal influence on the p38 phosphorylation and activation”, the “cleaved caspase 3 (17 Kda) immunoblotting” value ([1]; after 8 and 16 hours of CBD treatment vs methanol vehicle control) was “cleaved caspase across all cell lines at both time points” and the IC50 ([2]; Canis lupus familiaris, read-out: IC50 (Probit)) was 3.5 µg/mL (≈ 11.1 µM). The “concentrations that significantly diminished proliferation vs vehicle control” value ([2]; P<0.05) was no less than 2.5 µg/mL.

Reference: US20240075087A1, “COMPOSITIONS AND METHODS COMPRISING HEMP EXTRACT FOR THE TREATMENT OF ANIMALS IN NEED” (Portland Technology Holdings LLC, priority 2021, published 2024)
